Reference: article PMC9571063 (Molecules, 2022)
pIC50: −log10 of the molar value.

Columns and labels:
CSNK1G3 = target: T1, CSNK1G3 (Homo sapiens, UniProt Q9Y6M4); test: KINOMEscan; type: binding; settings: read-out: Percent Control
T1 construct: purchased Eurofins DiscoverX KINOMEscan (scanMAX 468)

WEE2 = target: T2, WEE2 (Homo sapiens, UniProt P0C1S8); test: KINOMEscan; type: binding; settings: read-out: Percent Control
T2 construct: purchased Eurofins DiscoverX KINOMEscan (scanMAX 468)

PIK3CA(Q546K) = target: T3, PIK3CA(Q546K) (Homo sapiens, UniProt P42336, Q546K); test: KINOMEscan; type: binding; settings: read-out: Percent Control
T3 construct: purchased Eurofins DiscoverX KINOMEscan (scanMAX 468)

[1] = target: T4, EGFR(L747-S752del, P753S) (Homo sapiens, UniProt P00533, DEL747-752/P753S); test: KINOMEscan; type: binding; settings: read-out: Percent Control
T4 construct: purchased Eurofins DiscoverX KINOMEscan (scanMAX 468)

FGFR3 = target: T5, FGFR3 (Homo sapiens, UniProt P22607); test: KINOMEscan; type: binding; settings: read-out: Percent Control
T5 construct: purchased Eurofins DiscoverX KINOMEscan (scanMAX 468)

EGFR(G719C) = target: T6, EGFR(G719C) (Homo sapiens, UniProt P00533, G719C); test: KINOMEscan; type: binding; settings: read-out: Percent Control
T6 construct: purchased Eurofins DiscoverX KINOMEscan (scanMAX 468)

PIK3CA(C420R) = target: T7, PIK3CA(C420R) (Homo sapiens, UniProt P42336, C420R); test: KINOMEscan; type: binding; settings: read-out: Percent Control
T7 construct: purchased Eurofins DiscoverX KINOMEscan (scanMAX 468)

MAP3K4 = target: T8, MAP3K4 (Homo sapiens, UniProt Q9Y6R4); test: KINOMEscan; type: binding; settings: read-out: Percent Control
T8 construct: purchased Eurofins DiscoverX KINOMEscan (scanMAX 468)

WNK3 = target: T9, WNK3 (Homo sapiens, UniProt Q9BYP7); test: KINOMEscan; type: binding; settings: read-out: Percent Control
T9 construct: purchased Eurofins DiscoverX KINOMEscan (scanMAX 468)

STK39 = target: T10, STK39 (Homo sapiens, UniProt Q9UEW8); test: KINOMEscan; type: binding; settings: read-out: Percent Control
T10 construct: purchased Eurofins DiscoverX KINOMEscan (scanMAX 468)

FLT3(R834Q) = target: T11, FLT3(R834Q) (Homo sapiens, UniProt P36888, R834Q); test: KINOMEscan; type: binding; settings: read-out: Percent Control
T11 construct: purchased Eurofins DiscoverX KINOMEscan (scanMAX 468)

CDK2 = target: T12, CDK2 (Homo sapiens, UniProt P24941); test: KINOMEscan; type: binding; settings: read-out: Percent Control
T12 construct: purchased Eurofins DiscoverX KINOMEscan (scanMAX 468)

NEK2 = target: T13, NEK2 (Homo sapiens, UniProt P51955); test: KINOMEscan; type: binding; settings: read-out: Percent Control
T13 construct: purchased Eurofins DiscoverX KINOMEscan (scanMAX 468)

PHKG2 = target: T14, PHKG2 (Homo sapiens, UniProt P15735); test: KINOMEscan; type: binding; settings: read-out: Percent Control
T14 construct: purchased Eurofins DiscoverX KINOMEscan (scanMAX 468)

MUSK = target: T15, MUSK (Homo sapiens, UniProt O15146); test: KINOMEscan; type: binding; settings: read-out: Percent Control
T15 construct: purchased Eurofins DiscoverX KINOMEscan (scanMAX 468)

PRKCI = target: T16, PRKCI (Homo sapiens, UniProt P41743); test: KINOMEscan; type: binding; settings: read-out: Percent Control
T16 construct: purchased Eurofins DiscoverX KINOMEscan (scanMAX 468)

PIKFYVE = target: T17, PIKFYVE (Homo sapiens, UniProt Q9Y2I7); test: KINOMEscan; type: binding; settings: read-out: Percent Control
T17 construct: purchased Eurofins DiscoverX KINOMEscan (scanMAX 468)

BRSK2 = target: T18, BRSK2 (Homo sapiens, UniProt Q8IWQ3); test: KINOMEscan; type: binding; settings: read-out: Percent Control
T18 construct: purchased Eurofins DiscoverX KINOMEscan (scanMAX 468)

ACVR2A = target: T19, ACVR2A (Homo sapiens, UniProt P27037); test: KINOMEscan; type: binding; settings: read-out: Percent Control
T19 construct: purchased Eurofins DiscoverX KINOMEscan (scanMAX 468)

panel of 468 kinases = test: KINOMEscan, whole panel selectivity score; type: binding, human; settings: 1 µM; non-mutant kinases with %Ctrl < 25 / 403 non-mutant kinases tested
YANK1 = target: T20, YANK1 (Homo sapiens, UniProt Q8WU08); test: KINOMEscan; type: binding; settings: read-out: Percent Control
T20 construct: purchased Eurofins (KINOMEscan, DiscoverX)

FGR = target: T21, FGR (Homo sapiens, UniProt P09769); test: KINOMEscan; type: binding; settings: read-out: Percent Control
T21 construct: purchased Eurofins DiscoverX KINOMEscan (scanMAX 468)

DAPK2 = target: T22, DAPK2 (Homo sapiens, UniProt Q9UIK4); test: KINOMEscan; type: binding; settings: read-out: Percent Control
T22 construct: purchased Eurofins DiscoverX KINOMEscan (scanMAX 468)

MST1 = target: T23, MST1 (Homo sapiens, UniProt Q13043); test: KINOMEscan; type: binding; settings: read-out: Percent Control
T23 construct: purchased Eurofins DiscoverX KINOMEscan (scanMAX 468)

MTOR = target: T24, MTOR (Homo sapiens, UniProt P42345); test: KINOMEscan; type: binding; settings: read-out: Percent Control
T24 construct: purchased Eurofins DiscoverX KINOMEscan (scanMAX 468)

PCTK1 = target: T25, PCTK1 (Homo sapiens, UniProt Q00536); test: KINOMEscan; type: binding; settings: read-out: Percent Control
T25 construct: purchased Eurofins DiscoverX KINOMEscan (scanMAX 468)

PIK3CA(M1043I) = target: T26, PIK3CA(M1043I) (Homo sapiens, UniProt P42336, M1043I); test: KINOMEscan; type: binding; settings: read-out: Percent Control
T26 construct: purchased Eurofins DiscoverX KINOMEscan (scanMAX 468)

TEC = target: T27, TEC (Homo sapiens, UniProt P42680); test: KINOMEscan; type: binding; settings: read-out: Percent Control
T27 construct: purchased Eurofins DiscoverX KINOMEscan (scanMAX 468)

GAK = target: T28, GAK (Homo sapiens, UniProt O14976); test: KINOMEscan; type: binding; settings: read-out: Percent Control
T28 construct: purchased Eurofins DiscoverX KINOMEscan (scanMAX 468)

PRKCD = target: T29, PRKCD (Homo sapiens, UniProt Q05655); test: KINOMEscan; type: binding; settings: read-out: Percent Control
T29 construct: purchased Eurofins DiscoverX KINOMEscan (scanMAX 468)

Human skin fibroblasts = system: Human skin fibroblasts; design: method as in ref 14 (a number printed in a supplementary file, which may have a reference list of its own: not looked up in the article's list); settings: DB18[a], footnote not given; read-out: Cytotoxic studies IC50 Fibroblasts; cited from earlier work
CSNK1D = target: T30, CSNK1D (Homo sapiens, UniProt P48730); test: KINOMEscan; type: binding; settings: read-out: Percent Control
T30 construct: purchased Eurofins DiscoverX KINOMEscan (scanMAX 468)

ADCK3 = target: T31, ADCK3 (Homo sapiens, UniProt Q8NI60); test: KINOMEscan; type: binding; settings: read-out: Percent Control
T31 construct: purchased Eurofins DiscoverX KINOMEscan (scanMAX 468)

ACVR1B = target: T32, ACVR1B (Homo sapiens, UniProt P36896); test: KINOMEscan; type: binding; settings: read-out: Percent Control
T32 construct: purchased Eurofins DiscoverX KINOMEscan (scanMAX 468)

LIMK1 = target: T33, LIMK1 (Homo sapiens, UniProt P53667); test: KINOMEscan; type: binding; settings: read-out: Percent Control
T33 construct: purchased Eurofins DiscoverX KINOMEscan (scanMAX 468)

PLK4 = target: T34, PLK4 (Homo sapiens, UniProt O00444); test: KINOMEscan; type: binding; settings: read-out: Percent Control
T34 construct: purchased Eurofins DiscoverX KINOMEscan (scanMAX 468)

CSK = target: T35, CSK (Homo sapiens, UniProt P41240); test: KINOMEscan; type: binding; settings: read-out: Percent Control
T35 construct: purchased Eurofins DiscoverX KINOMEscan (scanMAX 468)

PLK3 = target: T36, PLK3 (Homo sapiens, UniProt Q9H4B4); test: KINOMEscan; type: binding; settings: read-out: Percent Control
T36 construct: purchased Eurofins DiscoverX KINOMEscan (scanMAX 468)

PKN2 = target: T37, PKN2 (Homo sapiens, UniProt Q16513); test: KINOMEscan; type: binding; settings: read-out: Percent Control
T37 construct: purchased Eurofins DiscoverX KINOMEscan (scanMAX 468)

[2] = target: T38, ABL1(F317I)-nonphosphorylated (Homo sapiens, UniProt P00519, F317I); test: KINOMEscan; type: binding; settings: read-out: Percent Control
T38 construct: purchased Eurofins DiscoverX KINOMEscan (scanMAX 468)

CDKL3 = target: T39, CDKL3 (Homo sapiens, UniProt Q8IVW4); test: KINOMEscan; type: binding; settings: read-out: Percent Control
T39 construct: purchased Eurofins DiscoverX KINOMEscan (scanMAX 468)

BUB1 = target: T40, BUB1 (Homo sapiens, UniProt O43683); test: KINOMEscan; type: binding; settings: read-out: Percent Control
T40 construct: purchased Eurofins DiscoverX KINOMEscan (scanMAX 468)

T31 sequence (Q8NI60 163-647): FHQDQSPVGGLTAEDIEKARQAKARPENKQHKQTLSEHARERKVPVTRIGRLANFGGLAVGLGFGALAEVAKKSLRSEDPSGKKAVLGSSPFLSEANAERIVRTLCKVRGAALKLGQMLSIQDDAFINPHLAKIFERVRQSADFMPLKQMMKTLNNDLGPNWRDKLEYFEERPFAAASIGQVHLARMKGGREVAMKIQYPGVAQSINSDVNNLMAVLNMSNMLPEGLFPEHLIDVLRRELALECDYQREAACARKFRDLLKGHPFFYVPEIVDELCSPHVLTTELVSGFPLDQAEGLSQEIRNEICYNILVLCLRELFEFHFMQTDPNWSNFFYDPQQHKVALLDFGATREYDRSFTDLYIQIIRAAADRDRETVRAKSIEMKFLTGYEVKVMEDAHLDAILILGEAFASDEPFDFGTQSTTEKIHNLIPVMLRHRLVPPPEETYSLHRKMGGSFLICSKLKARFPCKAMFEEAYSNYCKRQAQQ
T28 sequence (O14976 whole entry): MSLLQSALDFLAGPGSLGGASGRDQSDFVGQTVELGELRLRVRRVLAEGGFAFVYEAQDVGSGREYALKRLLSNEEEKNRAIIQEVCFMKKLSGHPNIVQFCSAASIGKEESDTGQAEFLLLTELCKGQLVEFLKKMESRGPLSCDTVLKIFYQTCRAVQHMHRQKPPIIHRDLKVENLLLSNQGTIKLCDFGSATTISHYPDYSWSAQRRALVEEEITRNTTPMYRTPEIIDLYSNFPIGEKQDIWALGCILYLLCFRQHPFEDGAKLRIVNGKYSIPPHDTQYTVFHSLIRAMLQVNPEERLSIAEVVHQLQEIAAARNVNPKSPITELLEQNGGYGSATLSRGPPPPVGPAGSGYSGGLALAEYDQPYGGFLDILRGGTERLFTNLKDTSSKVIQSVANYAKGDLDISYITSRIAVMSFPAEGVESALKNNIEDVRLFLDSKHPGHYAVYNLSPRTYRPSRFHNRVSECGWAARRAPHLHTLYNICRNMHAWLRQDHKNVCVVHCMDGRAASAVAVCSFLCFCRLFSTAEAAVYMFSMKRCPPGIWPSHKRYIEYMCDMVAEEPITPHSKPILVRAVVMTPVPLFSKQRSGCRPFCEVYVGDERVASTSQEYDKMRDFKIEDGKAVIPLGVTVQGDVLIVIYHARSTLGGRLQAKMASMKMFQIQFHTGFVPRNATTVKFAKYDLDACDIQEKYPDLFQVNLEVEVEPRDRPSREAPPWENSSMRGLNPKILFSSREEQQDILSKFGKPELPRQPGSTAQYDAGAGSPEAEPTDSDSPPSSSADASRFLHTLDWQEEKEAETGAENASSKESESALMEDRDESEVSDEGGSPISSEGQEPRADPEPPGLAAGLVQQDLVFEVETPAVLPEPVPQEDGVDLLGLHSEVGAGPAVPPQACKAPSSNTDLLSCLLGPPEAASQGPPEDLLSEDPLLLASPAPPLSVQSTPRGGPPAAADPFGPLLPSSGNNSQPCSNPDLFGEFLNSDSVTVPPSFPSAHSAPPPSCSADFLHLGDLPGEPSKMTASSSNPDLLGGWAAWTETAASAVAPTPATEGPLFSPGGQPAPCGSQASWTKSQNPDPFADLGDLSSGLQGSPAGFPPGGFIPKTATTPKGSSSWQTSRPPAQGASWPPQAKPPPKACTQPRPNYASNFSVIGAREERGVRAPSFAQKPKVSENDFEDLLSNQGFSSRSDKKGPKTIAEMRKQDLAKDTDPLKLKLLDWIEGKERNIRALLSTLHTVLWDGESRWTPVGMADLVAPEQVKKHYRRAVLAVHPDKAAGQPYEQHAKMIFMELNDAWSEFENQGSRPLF
T22 sequence (Q9UIK4 whole entry): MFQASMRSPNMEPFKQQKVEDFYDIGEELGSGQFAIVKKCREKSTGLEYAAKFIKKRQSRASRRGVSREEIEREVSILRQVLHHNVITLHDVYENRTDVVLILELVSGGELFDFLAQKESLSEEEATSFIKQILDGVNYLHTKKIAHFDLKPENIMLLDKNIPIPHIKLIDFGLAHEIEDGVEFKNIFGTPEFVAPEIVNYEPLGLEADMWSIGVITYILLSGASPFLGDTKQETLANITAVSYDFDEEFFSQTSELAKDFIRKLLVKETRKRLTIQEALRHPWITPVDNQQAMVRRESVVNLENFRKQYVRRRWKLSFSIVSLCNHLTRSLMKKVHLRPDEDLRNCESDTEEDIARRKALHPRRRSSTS
T35 sequence (P41240 whole entry): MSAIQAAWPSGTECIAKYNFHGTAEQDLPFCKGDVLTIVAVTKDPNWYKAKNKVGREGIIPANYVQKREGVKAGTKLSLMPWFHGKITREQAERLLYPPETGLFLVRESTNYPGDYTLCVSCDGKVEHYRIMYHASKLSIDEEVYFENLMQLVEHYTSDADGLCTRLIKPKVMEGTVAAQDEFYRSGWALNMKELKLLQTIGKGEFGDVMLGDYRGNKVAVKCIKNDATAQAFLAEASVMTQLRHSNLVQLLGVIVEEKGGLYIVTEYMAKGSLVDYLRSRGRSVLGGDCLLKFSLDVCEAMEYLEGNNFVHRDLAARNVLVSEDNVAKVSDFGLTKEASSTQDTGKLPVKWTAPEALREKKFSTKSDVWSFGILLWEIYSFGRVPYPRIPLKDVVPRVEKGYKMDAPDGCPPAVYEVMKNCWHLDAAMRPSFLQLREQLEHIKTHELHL
T19 sequence (P27037 20-513): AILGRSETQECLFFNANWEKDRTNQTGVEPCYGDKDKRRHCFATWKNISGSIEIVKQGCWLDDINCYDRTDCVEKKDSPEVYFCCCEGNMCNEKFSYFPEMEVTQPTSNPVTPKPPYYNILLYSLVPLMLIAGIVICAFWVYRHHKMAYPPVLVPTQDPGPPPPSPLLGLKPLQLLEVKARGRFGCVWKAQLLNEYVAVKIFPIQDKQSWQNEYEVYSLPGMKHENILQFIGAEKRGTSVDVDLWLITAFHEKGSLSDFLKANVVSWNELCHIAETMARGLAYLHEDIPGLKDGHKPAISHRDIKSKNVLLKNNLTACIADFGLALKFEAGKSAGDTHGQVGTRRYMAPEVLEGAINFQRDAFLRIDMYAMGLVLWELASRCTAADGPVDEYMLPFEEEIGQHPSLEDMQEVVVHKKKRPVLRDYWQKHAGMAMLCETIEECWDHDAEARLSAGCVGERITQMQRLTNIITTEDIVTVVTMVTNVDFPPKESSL
T4 sequence (P00533 with tags, fused parts or gaps DEL747-752/P753S limits assumed): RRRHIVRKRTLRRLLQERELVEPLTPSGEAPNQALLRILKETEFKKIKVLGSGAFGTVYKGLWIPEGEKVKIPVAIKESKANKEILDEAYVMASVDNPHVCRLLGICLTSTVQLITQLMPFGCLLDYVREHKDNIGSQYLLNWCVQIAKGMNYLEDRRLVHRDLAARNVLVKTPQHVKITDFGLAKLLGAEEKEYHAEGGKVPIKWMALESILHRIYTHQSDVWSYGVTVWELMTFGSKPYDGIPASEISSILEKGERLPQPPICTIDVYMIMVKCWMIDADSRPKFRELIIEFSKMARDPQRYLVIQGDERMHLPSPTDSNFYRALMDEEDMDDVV
T29 sequence (Q05655 whole entry): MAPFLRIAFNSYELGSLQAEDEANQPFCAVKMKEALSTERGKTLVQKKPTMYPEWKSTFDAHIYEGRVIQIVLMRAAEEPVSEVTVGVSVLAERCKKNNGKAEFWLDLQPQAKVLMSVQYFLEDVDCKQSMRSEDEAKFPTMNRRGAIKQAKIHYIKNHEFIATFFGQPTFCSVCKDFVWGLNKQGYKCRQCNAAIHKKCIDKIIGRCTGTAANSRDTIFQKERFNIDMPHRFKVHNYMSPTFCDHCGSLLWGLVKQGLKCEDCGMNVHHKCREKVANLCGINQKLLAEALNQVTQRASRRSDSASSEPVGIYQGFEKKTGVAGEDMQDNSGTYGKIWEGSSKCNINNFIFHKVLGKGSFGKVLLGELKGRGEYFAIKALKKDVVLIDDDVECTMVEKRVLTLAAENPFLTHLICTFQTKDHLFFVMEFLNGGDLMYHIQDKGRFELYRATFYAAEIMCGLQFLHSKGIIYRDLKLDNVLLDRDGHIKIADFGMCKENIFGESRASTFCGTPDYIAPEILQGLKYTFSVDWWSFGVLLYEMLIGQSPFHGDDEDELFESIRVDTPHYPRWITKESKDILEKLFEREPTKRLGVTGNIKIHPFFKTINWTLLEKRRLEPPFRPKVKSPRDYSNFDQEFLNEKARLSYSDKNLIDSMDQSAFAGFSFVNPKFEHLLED
T23 sequence (Q13043 whole entry): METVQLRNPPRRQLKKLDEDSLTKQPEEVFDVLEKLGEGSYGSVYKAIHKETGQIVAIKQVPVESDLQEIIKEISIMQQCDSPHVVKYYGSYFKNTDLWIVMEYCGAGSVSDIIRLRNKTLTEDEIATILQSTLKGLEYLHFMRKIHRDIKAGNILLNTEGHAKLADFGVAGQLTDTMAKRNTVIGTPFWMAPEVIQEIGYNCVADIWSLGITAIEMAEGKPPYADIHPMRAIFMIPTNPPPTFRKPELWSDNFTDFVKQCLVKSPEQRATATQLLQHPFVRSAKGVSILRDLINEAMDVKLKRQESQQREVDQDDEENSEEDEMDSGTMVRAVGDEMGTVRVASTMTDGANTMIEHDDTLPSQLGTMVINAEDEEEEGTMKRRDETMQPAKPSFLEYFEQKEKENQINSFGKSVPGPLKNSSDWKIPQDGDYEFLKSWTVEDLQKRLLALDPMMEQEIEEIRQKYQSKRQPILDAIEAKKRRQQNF
T14 sequence (P15735 whole entry): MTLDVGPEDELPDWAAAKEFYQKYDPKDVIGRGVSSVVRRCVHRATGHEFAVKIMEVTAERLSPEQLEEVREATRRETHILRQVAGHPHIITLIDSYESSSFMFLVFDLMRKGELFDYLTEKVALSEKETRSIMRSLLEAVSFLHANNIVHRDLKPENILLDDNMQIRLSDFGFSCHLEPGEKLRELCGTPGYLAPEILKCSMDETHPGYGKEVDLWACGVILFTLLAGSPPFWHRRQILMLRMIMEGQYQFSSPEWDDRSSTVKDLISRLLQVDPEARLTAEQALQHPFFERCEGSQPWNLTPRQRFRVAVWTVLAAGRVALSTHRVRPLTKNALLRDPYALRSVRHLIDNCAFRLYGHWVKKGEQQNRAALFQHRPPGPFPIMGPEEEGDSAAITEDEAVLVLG

## Cc1ccc(-n2cc(COc3cccc4cnc(Nc5cccc(Cl)c5)nc34)nn2)c([N+](=O)[O-])c1 [DB18]
CSNK1G3
  remaining binding at 1 µM: 100%
WEE2
  remaining binding at 1 µM: 100%
PIK3CA(Q546K)
  remaining binding at 1 µM: 96%
[1]
  remaining binding at 1 µM: 83%
FGFR3
  remaining binding at 1 µM: 100%
EGFR(G719C)
  remaining binding at 1 µM: 100%
PIK3CA(C420R)
  remaining binding at 1 µM: 100%
MAP3K4
  remaining binding at 1 µM: 100%
WNK3
  remaining binding at 1 µM: 100%
STK39
  remaining binding at 1 µM: 97%
FLT3(R834Q)
  remaining binding at 1 µM: 87%
CDK2
  remaining binding at 1 µM: 100%
NEK2
  remaining binding at 1 µM: 100%
PHKG2
  remaining binding at 1 µM: 95%
MUSK
  remaining binding at 1 µM: 100%
PRKCI
  remaining binding at 1 µM: 96%
PIKFYVE
  remaining binding at 1 µM: 61%
BRSK2
  remaining binding at 1 µM: 97%
ACVR2A
  remaining binding at 1 µM: 100%
Panel of 468 kinases
  S-Score(25): 0.015
YANK1
  remaining binding at 1 µM: 100%
FGR
  remaining binding at 1 µM: 96%
DAPK2
  remaining binding at 1 µM: 100%
MST1
  remaining binding at 1 µM: 100%
MTOR
  remaining binding at 1 µM: 55%
PCTK1
  remaining binding at 1 µM: 94%
PIK3CA(M1043I)
  remaining binding at 1 µM: 100%
TEC
  remaining binding at 1 µM: 100%
GAK
  remaining binding at 1 µM: 100%
PRKCD
  remaining binding at 1 µM: 100%
Human skin fibroblasts
  pIC50: 4.68
CSNK1D
  remaining binding at 1 µM: 100%
ADCK3
  remaining binding at 1 µM: 100%
ACVR1B
  remaining binding at 1 µM: 88%
LIMK1
  remaining binding at 1 µM: 100%
PLK4
  remaining binding at 1 µM: 99%
CSK
  remaining binding at 1 µM: 100%
PLK3
  remaining binding at 1 µM: 98%
PKN2
  remaining binding at 1 µM: 100%
[2]
  remaining binding at 1 µM: 100%
CDKL3
  remaining binding at 1 µM: 94%
BUB1
  remaining binding at 1 µM: 97%
